Experimental data as given in PubChem BioAssay AID200 (DTP/NCI, 2004).
“And” between values parts separate entries of the source, which are not always exact repeats. Equal values may be shown once. Inconclusive results and toxic doses are left out.

Tested on: B6C3F1 mice, B16 melanoma ip, median survival T/C
Assay: NCI In Vivo Anticancer Drug Screen. Data for tumor model B16 Melanoma (intraperitoneal) in B6C3F1 mice
Conditions: endpoint: median survival time, schedule: Q01DX009 (ip), higher = longer survival
Description: The antitumor activity of compounds was measured in mice bearing transplantable tumors. Survival or tumor size were measured and the results are expressed as the measurement made in the treated group (T) divided by the measurement made in the vehicle treated control group (C). The tumor model used in this assay is B16 Melanoma (intraperitoneal) in B6C3F1 mice

[1] = dose: 50.0 mg/kg/injection, vehicle: saline
[2] = dose: 100.0 mg/kg/injection, vehicle: saline
[3] = dose: 200.0 mg/kg/injection, vehicle: saline
[4] = dose: 400.0 mg/kg/injection, vehicle: saline
[5] = dose: 25.0 mg/kg/injection, vehicle: saline
[6] = dose: 25.0 mg/kg/injection, vehicle: saline with Tween-80
[7] = dose: 50.0 mg/kg/injection, vehicle: saline with Tween-80
[8] = dose: 100.0 mg/kg/injection, vehicle: saline with Tween-80
[9] = dose: 200.0 mg/kg/injection, vehicle: saline with Tween-80
[10] = dose: 400.0 mg/kg/injection, vehicle: saline with Tween-80
[11] = dose: 12.5 mg/kg/injection, vehicle: Klucel (hydroxypropylcellulose) (HPC)
[12] = dose: 12.5 mg/kg/injection, vehicle: saline with Tween-80
[13] = dose: 25.0 mg/kg/injection, vehicle: Klucel (hydroxypropylcellulose) (HPC)
[14] = dose: 50.0 mg/kg/injection, vehicle: Klucel (hydroxypropylcellulose) (HPC)
[15] = dose: 100.0 mg/kg/injection, vehicle: Klucel (hydroxypropylcellulose) (HPC)
[16] = dose: 200.0 mg/kg/injection, vehicle: Klucel (hydroxypropylcellulose) (HPC)
[17] = dose: 400.0 mg/kg/injection, vehicle: Klucel (hydroxypropylcellulose) (HPC)
[18] = dose: 3.12 mg/kg/injection, vehicle: saline
[19] = dose: 12.5 mg/kg/injection, vehicle: saline
[20] = dose: 0.78 mg/kg/injection, vehicle: Klucel (hydroxypropylcellulose) (HPC)
[21] = dose: 1.56 mg/kg/injection, vehicle: Klucel (hydroxypropylcellulose) (HPC)
[22] = dose: 3.12 mg/kg/injection, vehicle: Klucel (hydroxypropylcellulose) (HPC)
[23] = dose: 6.25 mg/kg/injection, vehicle: Klucel (hydroxypropylcellulose) (HPC)

NCCC(=O)NC(Cc1cnc[nH]1)C(=O)O (stereo not given)
T/C [1]: 102 % of control
T/C [2]: 104 % of control
T/C [3]: 103 % of control
T/C [4]: 104 % of control

Cc1c2cc[n+](CCN3CCCCC3)cc2c(C)c2c1[nH]c1ccc(O)cc12
T/C (dose: 6.25 mg/kg/injection, vehicle: suspension in saline): 153 % of control
T/C (dose: 12.5 mg/kg/injection, vehicle: suspension in saline): 204 % of control
T/C [5]: 172 % of control and 189 % of control

C=C(C)[C@]12CC(C)C34OC(/C=C\C=C\CCCCCCCCC)(O[C@@H]1[C@@H]3[C@@H]1O[C@]1(CO)[C@@H](O)[C@]1(O)C(=O)C(C)=C[C@@H]41)O2 (stereo not given in full)
T/C (dose: 0.09 mg/kg/injection, vehicle: distilled water + alcohol): 110 % of control
T/C (dose: 0.18 mg/kg/injection, vehicle: distilled water + alcohol): 110 % of control
T/C (dose: 0.37 mg/kg/injection, vehicle: distilled water + alcohol): 104 % of control

CC(C)(C)C(=O)CC(=O)C(F)(F)C(F)(F)C(F)(F)F.CC(C)(C)C(=O)CC(=O)C(F)(F)C(F)(F)C(F)(F)F.CC(C)(C)C(=O)CC(=O)C(F)(F)C(F)(F)C(F)(F)F.[Er]
T/C (dose: 12.5 mg/kg/injection, vehicle: saline + alcohol): 105 % of control
T/C (dose: 25.0 mg/kg/injection, vehicle: saline + alcohol): 118 % of control
T/C (dose: 50.0 mg/kg/injection, vehicle: saline + alcohol): 109 % of control
T/C (dose: 100.0 mg/kg/injection, vehicle: saline + alcohol): 111 % of control

CC(=O)NC(Cc1ccc(F)cc1)C(=O)O (stereo not given)
T/C [6]: 123 % of control
T/C [7]: 121 % of control
T/C [8]: 121 % of control
T/C [9]: 110 % of control
T/C [10]: 111 % of control
T/C (dose: 800.0 mg/kg/injection, vehicle: saline with Tween-80): 121 % of control

CCCCC(C)(CCN)CCCC
T/C [5]: 105 % of control
T/C [1]: 122 % of control
T/C [2]: 101 % of control

S=C(Nc1ccc(Cl)c(Cl)c1)N1c2ccccc2-n2cccc2C1c1cccnc1 (stereo not given)
T/C [11]: 90 % of control and 98 % of control and 102 % of control
T/C [12]: 99 % of control
T/C [13]: 91 % of control and 94 % of control and 98 % of control
T/C [6]: 102 % of control
T/C [14]: 90 % of control and 104 % of control and 107 % of control
T/C [7]: 99 % of control
T/C [15]: 88 % of control and 91 % of control and 97 % of control
T/C [8]: 107 % of control
T/C [16]: 114 % of control and 90 % of control (2×)
T/C [9]: 102 % of control
T/C [17]: 91 % of control

C(=N/NC1=NCCN1)/c1c2ccccc2c(/C=N\NC2=NCCN2)c2ccccc12
T/C [18]: 183 % of control
T/C (dose: 6.25 mg/kg/injection, vehicle: saline): 189 % of control
T/C [19]: 179 % of control

CC(=O)Nc1ccc(/C=N/NC(N)=S)cc1
T/C [6]: 93 % of control
T/C [7]: 97 % of control
T/C [8]: 90 % of control
T/C [9]: 88 % of control
T/C [10]: 92 % of control

C=C(C)C(=O)N(C)C(C)C(=O)OC1CC(=O)N(C)c2cc(cc(OC)c2Cl)C(OC)C(C)=C/C=C/C(OC)C2(O)CC(OC(=O)N2)C(C)C2OC12C (stereo not given)
T/C (dose: 8.0 micrograms/kg/injection, vehicle: saline): 169 % of control
T/C (dose: 16.0 micrograms/kg/injection, vehicle: saline): 182 % of control
T/C (dose: 32.0 micrograms/kg/injection, vehicle: saline): 180 % of control

NC(=O)CC(NC(=O)OCC1c2ccccc2-c2ccccc21)C(=O)O (stereo not given)
T/C [11]: 116 % of control
T/C [13]: 107 % of control

O=C(NC(Cc1ccc(I)cc1)C(=O)O)c1cccc(Br)c1 (stereo not given)
T/C [13]: 100 % of control
T/C [14]: 104 % of control
T/C [15]: 105 % of control
T/C [16]: 103 % of control
T/C [17]: 89 % of control

COc1ccccc1N=Nc1cc(S(=O)(=O)O)c2ccccc2c1O
T/C [19]: 95 % of control
T/C [5]: 92 % of control
T/C [1]: 98 % of control
T/C [9]: 87 % of control

N#CC(OC1OC(COC2OC(CO)C(O)C(O)C2O)C(O)C(O)C1O)c1ccccc1 (stereo not given)
T/C [5]: 101 % of control
T/C (dose: 25.0 mg/kg/injection, vehicle: water): 100 % of control
T/C [1]: 104 % of control
T/C (dose: 50.0 mg/kg/injection, vehicle: water): 102 % of control
T/C [2]: 105 % of control
T/C (dose: 100.0 mg/kg/injection, vehicle: water): 102 % of control
T/C [3]: 106 % of control
T/C (dose: 200.0 mg/kg/injection, vehicle: water): 117 % of control
T/C [4]: 101 % of control
T/C (dose: 400.0 mg/kg/injection, vehicle: water): 106 % of control
T/C (dose: 800.0 mg/kg/injection, vehicle: saline): 100 % of control
T/C (dose: 800.0 mg/kg/injection, vehicle: water): 106 % of control

CN(C)CCN1C(=O)c2cccc3cc(N)cc(c23)C1=O
T/C (dose: 1.0 mg/kg/injection, vehicle: saline with Tween-80): 113 % of control and 102 % of control
T/C (dose: 2.0 mg/kg/injection, vehicle: acid diluted with saline): 97 % of control
T/C (dose: 2.0 mg/kg/injection, vehicle: saline with Tween-80): 101 % of control and 102 % of control
T/C (dose: 4.0 mg/kg/injection, vehicle: acid diluted with saline): 106 % of control
T/C (dose: 4.0 mg/kg/injection, vehicle: saline with Tween-80): 112 % of control and 113 % of control and 120 % of control
T/C (dose: 8.0 mg/kg/injection, vehicle: acid diluted with saline): 111 % of control
T/C (dose: 8.0 mg/kg/injection, vehicle: saline with Tween-80): 116 % of control and 118 % of control and 120 % of control
T/C (dose: 16.0 mg/kg/injection, vehicle: acid diluted with saline): 110 % of control
T/C (dose: 16.0 mg/kg/injection, vehicle: saline with Tween-80): 87 % of control

Clc1ccc(C[P+](c2ccccc2)(c2ccccc2)c2ccccc2)cc1Cl
T/C [20]: 99 % of control
T/C [21]: 107 % of control
T/C [22]: 103 % of control
T/C [11]: 88 % of control

O=c1s[se]c2ccccc12
T/C [21]: 94 % of control
T/C (dose: 1.56 mg/kg/injection, vehicle: saline with Tween-80): 104 % of control
T/C [22]: 108 % of control
T/C (dose: 3.12 mg/kg/injection, vehicle: saline with Tween-80): 114 % of control
T/C [23]: 97 % of control
T/C (dose: 6.25 mg/kg/injection, vehicle: saline with Tween-80): 87 % of control
T/C [11]: 98 % of control
T/C [12]: 103 % of control
T/C [13]: 94 % of control
T/C [6]: 105 % of control
T/C [7]: 92 % of control

CCCNC1=C(C)C(=O)C2=C(C1=O)[C@H](COC(N)=O)[C@]1(OC)[C@@H]3N[C@@H]3CN21
T/C (dose: 0.39 mg/kg/injection, vehicle: Klucel (hydroxypropylcellulose) (HPC)): 104 % of control
T/C (dose: 0.39 mg/kg/injection, vehicle: saline): 115 % of control
T/C [20]: 105 % of control
T/C [21]: 105 % of control
T/C (dose: 1.56 mg/kg/injection, vehicle: saline): 155 % of control
T/C [22]: 96 % of control
T/C [18]: 173 % of control
T/C [23]: 111 % of control
